Experimental data from ChEMBL document CHEMBL3352057, “Novel fluorinated pyrrolo[1,2-a]pyrazine-2,6-dione derivatives: synthesis and anticonvulsant evaluation in animal models of epilepsy” (Bioorg Med Chem, 2014).
Calls of active or inactive are those of the source. The rule behind the calls is not given here.

Assays:
Mus musculus [1] = experiment: Anticonvulsant activity in albino CF1 mouse assessed as protection against maximal electroshock-induced seizures at 100 mg/kg, ip measured after 1 hr; assay type: functional, organism-based; parameters: dose 100 mg/kg
Mus musculus [2] = experiment: Neurotoxicity in albino CF1 mouse at 100 mg/kg, ip measured after 0.5 hr; assay type: toxicity, organism-based; parameters: dose 100 mg/kg, route intraperitoneal; settings: in vivo
Mus musculus [3] = experiment: Neurotoxicity in albino CF1 mouse at 100 mg/kg, ip measured after 4 hrs; assay type: toxicity, organism-based; parameters: dose 100 mg/kg, route intraperitoneal; settings: in vivo
Mus musculus [4] = experiment: Anticonvulsant activity in albino CF1 mouse assessed as protection against 32 mA current-induced seizures at 100 mg/kg, ip measured after 1 hr; assay type: functional, organism-based; parameters: dose 100 mg/kg
Mus musculus [5] = experiment: Anticonvulsant activity in albino CF1 mouse assessed as protection against 32 mA current-induced seizures at 100 mg/kg, ip measured after 2 hrs; assay type: functional, organism-based; parameters: dose 100 mg/kg
Mus musculus [6] = experiment: Anticonvulsant activity in albino CF1 mouse assessed as protection against 32 mA current-induced seizures at 100 mg/kg, ip measured after 4 hrs; assay type: functional, organism-based; parameters: dose 100 mg/kg
Mus musculus [7] = experiment: Neurotoxicity in 32 mA current-induced seizure albino CF1 mouse model at 100 mg/kg, ip measured after 0.5 hr; assay type: toxicity, organism-based; parameters: dose 100 mg/kg, route intraperitoneal; settings: in vivo
Mus musculus [8] = experiment: Neurotoxicity in 32 mA current-induced seizure albino CF1 mouse model at 100 mg/kg, ip measured after 2 hrs; assay type: toxicity, organism-based; parameters: dose 100 mg/kg, route intraperitoneal; settings: in vivo
Mus musculus [9] = experiment: Anticonvulsant activity in albino CF1 mouse assessed as protection against 44 mA current-induced seizures at 100 mg/kg, ip measured after 0.25 hr; assay type: functional, organism-based; parameters: dose 100 mg/kg
Mus musculus [10] = experiment: Anticonvulsant activity in albino CF1 mouse assessed as protection against 44 mA current-induced seizures at 100 mg/kg, ip measured after 0.5 hr; assay type: functional, organism-based; parameters: dose 100 mg/kg
Mus musculus [11] = experiment: Anticonvulsant activity in albino CF1 mouse assessed as protection against 44 mA current-induced seizures at 100 mg/kg, ip measured after 4 hrs; assay type: functional, organism-based; parameters: dose 100 mg/kg
Mus musculus [12] = experiment: Neurotoxicity in 44 mA current-induced seizure albino CF1 mouse model at 100 mg/kg, ip measured after 0.25 hr; assay type: toxicity, organism-based; parameters: dose 100 mg/kg, route intraperitoneal; settings: in vivo
Mus musculus [13] = experiment: Neurotoxicity in 44 mA current-induced seizure albino CF1 mouse model at 100 mg/kg, ip measured after 0.5 hr; assay type: toxicity, organism-based; parameters: dose 100 mg/kg, route intraperitoneal; settings: in vivo
Mus musculus [14] = experiment: Neurotoxicity in 44 mA current-induced seizure albino CF1 mouse model at 100 mg/kg, ip measured after 2 hrs; assay type: toxicity, organism-based; parameters: dose 100 mg/kg, route intraperitoneal; settings: in vivo
Mus musculus [15] = experiment: Neurotoxicity in 44 mA current-induced seizure albino CF1 mouse model at 100 mg/kg, ip measured after 4 hrs; assay type: toxicity, organism-based; parameters: dose 100 mg/kg, route intraperitoneal; settings: in vivo
Rattus norvegicus [16] = experiment: Anticonvulsant activity in Sprague-Dawley rat assessed as protection against maximal electroshock-induced seizures at 30 mg/kg, po measured after 1 hr; assay type: functional, organism-based; parameters: dose 30 mg/kg
Rattus norvegicus [17] = experiment: Anticonvulsant activity in Sprague-Dawley rat assessed as protection against maximal electroshock-induced seizures at 30 mg/kg, po measured after 4 hrs; assay type: functional, organism-based; parameters: dose 30 mg/kg
Rattus norvegicus [18] = experiment: Anticonvulsant activity in Sprague-Dawley rat assessed as protection against maximal electroshock-induced seizures at 30 mg/kg, ip measured after 1 hr; assay type: functional, organism-based; parameters: dose 30 mg/kg
Rattus norvegicus [19] = experiment: Anticonvulsant activity in Sprague-Dawley rat assessed as protection against maximal electroshock-induced seizures at 30 mg/kg, ip measured after 4 hrs; assay type: functional, organism-based; parameters: dose 30 mg/kg
Rattus norvegicus [20] = experiment: Neurotoxicity in MES Sprague-Dawley rat model at 30 mg/kg, ip measured after 0.25 hr; assay type: toxicity, organism-based; parameters: dose 30 mg/kg, route intraperitoneal; settings: in vivo
Rattus norvegicus [21] = experiment: Neurotoxicity in MES Sprague-Dawley rat model at 30 mg/kg, ip measured after 0.5 hr; assay type: toxicity, organism-based; parameters: dose 30 mg/kg, route intraperitoneal; settings: in vivo
Rattus norvegicus [22] = experiment: Neurotoxicity in MES Sprague-Dawley rat model at 30 mg/kg, ip measured after 1 hr; assay type: toxicity, organism-based; parameters: dose 30 mg/kg, route intraperitoneal; settings: in vivo
[23] = Protective index, ratio of TD50 for neurotoxicity in ip dosed albino CF1 mouse to ED50 for anticonvulsant activity in ip dosed MES albino CF1 mouse model; assay type: toxicity, organism-based; settings: in vivo, read-out: Ratio TD50/ED50
Rattus norvegicus [24] = experiment: Anticonvulsant activity in ip dosed Sprague-Dawley rat assessed as protection against subcutaneous metrazol-induced seizures; assay type: functional
[25] = Protective index, ratio of TD50 for neurotoxicity in ip dosed Sprague-Dawley rat to ED50 for anticonvulsant activity in ip dosed MES Sprague-Dawley rat model; assay type: toxicity, organism-based; settings: in vivo, read-out: Ratio TD50/ED50
Mus musculus [26] = experiment: Anticonvulsant activity in ip dosed albino CF1 mouse assessed as protection against 44 mA current-induced seizures; assay type: functional
Mus musculus [27] = experiment: Anticonvulsant activity in albino CF1 mouse assessed as protection against iv infusion metrazol-induced seizures measured as twitch at 24 mg/kg, ip (reference value: 28.2 mg/kg); assay type: functional
Mus musculus [28] = experiment: Anticonvulsant activity in albino CF1 mouse assessed as protection against iv infusion metrazol-induced seizures measured as time to clonus at 24 mg/kg, ip (reference value: 29.4 seconds); assay type: functional
Mus musculus [29] = experiment: Anticonvulsant activity in albino CF1 mouse assessed as protection against iv infusion metrazol-induced seizures measured as clonus at 79 mg/kg, ip (reference value: 31.1 mg/kg); assay type: functional

## O=C1NC(=O)[C@@H]2CCCN2[C@H]1c1cccc(OC(F)(F)F)c1
Mus musculus [1]
  Activity: Active
Mus musculus [2]
  Activity: Toxic
Mus musculus [3]
  Activity: Non-toxic
Mus musculus [4]
  Activity: Active
Mus musculus [5]
  Activity: inactive
Mus musculus [6]
  Activity: inactive
Mus musculus [7]
  Activity: Non-toxic
Mus musculus [8]
  Activity: Non-toxic
Mus musculus [9]
  Activity: Active
Mus musculus [10]
  Activity: Active
Mus musculus [11]
  Activity: inactive
Mus musculus [12]
  Activity: Toxic
Mus musculus [13]
  Activity: Toxic
Mus musculus [14]
  Activity: Non-toxic
Mus musculus [15]
  Activity: Non-toxic
Rattus norvegicus [16]
  Activity: inactive
Rattus norvegicus [17]
  Activity: inactive
Rattus norvegicus [18]
  Activity: Active
Rattus norvegicus [19]
  Activity: inactive
Rattus norvegicus [20]
  Activity: Non-toxic
Rattus norvegicus [21]
  Activity: Non-toxic
Rattus norvegicus [22]
  Activity: Non-toxic
[23]
  selectivity ratio: 3.2
Rattus norvegicus [24]
  ED50: 41 µmol/kg
[25]
  selectivity ratio: 2.8
Mus musculus [26]
  ED50: 171 µmol/kg
Mus musculus [27]
  Activity: 35.2 mg/kg
Mus musculus [28]
  Time: 39.4 s
Mus musculus [29]
  Activity: 97.2 mg/kg
